Consider 15 molecules from US9278996B2, “Dolastatin-10 derivative, method of producing the same and anticancer drug composition containing the same” (CELLTRION, INC., priority 2012, dated 2016).

Common to all, as to type: cell-based
Experiment [1] deals with human epithelial cancer (A-431). As to the kind of experiment: Anticancer activity assay (WST-8 cell growth), A-431. The note with it: A-431, 96 h, read-out: IC50 (nM) A-431. The procedure:
(§1) The compounds of the present invention were assayed for inhibitory activity against 7 cancer cell lines as breast cancer (BT-474), human epithelial cancer (A-431), non-small cell lung cancer (NCI-H460), colon cancer (HT-29), colon cancer (SW-620), breast cancer (MDA-MB-231) and breast cancer (MCF-7).
(§2) Briefly, a suspension of each cancer cell line was serially diluted, and plated at a density of 2˜3×10^3 cells/well into 96-well microplates, followed by incubation at 37° C. for 4 day in a 5% CO2 atmosphere. Cell growth in a monolayer was measured using WST-8 reagemt (Dojindo, Japan).
(§3) IC50 values of the compounds against the cancer cell lines were calculated as compound concentrations at which the cells were grown by 50% OD of the control.
On the technique in general: Tetrazolium dyes change colour on reduction, which living cells bring about.

Experiment [2] has as its system breast cancer (BT-474). The experiment can be described thus: Anticancer activity assay (WST-8 cell growth), BT-474. As to conditions: Homo sapiens, BT-474, 96 h, read-out: IC50 (nM) BT-474. The procedure: as §1, §2, §3
Experiment [3] has as its system colon cancer (SW-620). The experiment can be described thus: Anticancer activity assay (WST-8 cell growth), SW-620. The note with it: Homo sapiens, SW-620, 96 h, read-out: IC50 (nM) SW-620. The method, then:
as §1, §2, §3

Experiment [4] deals with breast cancer (MCF-7). As to the kind of experiment: Anticancer activity assay (WST-8 cell growth), MCF-7. The note with it: Homo sapiens, MCF7, 96 h, read-out: IC50 (nM) MCF-7. The method, then:
as §1, §2, §3

For experiment [5], the system named is non-small cell lung cancer (NCI-H460). As to the kind of experiment: Anticancer activity assay (WST-8 cell growth), NCI-H460. As to conditions: Homo sapiens, NCI-H460, 96 h, read-out: IC50 (nM) NCI-H460. The procedure:
as §1, §2, §3

Turning to `CC[C@H](C)[C@@H]([C@@H](CC(=O)N1C[C@H](OC)C[C@H]1[C@H](OC)[C@@H](C)C(=O)NCC(=O)c1ccc(OC)cc1)OC)N(C)C(=O)[C@@H](NC(=O)[C@@H](NC)C(C)C)C(C)C` (stereo in doubt) [Compound I-5, (2S)—N-((3R,4S)-3-methoxy-1-((2R,4R)-4-methoxy-2-((1R,2R)-1-methoxy-3-((2-(4-methoxyphenyl)-2-oxoethyl)amino)-2-methyl-3-oxopropyl)pyrrolidin-1-yl)-5-methyl-1-oxoheptan-4-yl)-N,3-dimethyl-2-((S)-3-methyl-2-(methylamino)butaneamido)butanamide], the IC50 in experiment [1] worked out at 61.2 nM; in experiment [2], 0.53 nM.
For the molecule `CC[C@H](C)[C@@H]([C@@H](CC(=O)N1C[C@H](OC)C[C@@H]1[C@H](OC)[C@@H](C)C(=O)NCCc1ccc(F)cc1)OC)N(C)C(=O)[C@@H](NC(=O)[C@@H](NC)C(C)C)C(C)C` [Compound I-3, (S)—N-((3R,4S,5S)-1-((2R,4R)-2-((1R,2R)-3-((4-fluorophenethyl)amino)-1-methoxy-2-methyl-3-oxopropyl)-4-methoxypyrrolidin-1-yl)-3-methoxy-5-methyl-1-oxoheptan-4-yl)-N,3-dimethyl-2-((S)-3-methyl-2-(methylamino)butaneamido)butanamide], the figures for the 50% inhibitory concentration (IC50) in experiment [1] and in experiment [2] were 37.9 nM and 1.1 nM, respectively.
Taken in the same sequence, the figures for `CC[C@H](C)[C@@H]([C@@H](CC(=O)N1C[C@H](OC)CC1[C@H](OC)[C@@H](C)C(=O)NCCc1cc(F)c(Cl)cc1Cl)OC)N(C)C(=O)[C@@H](NC(=O)[C@@H](NC)C(C)C)C(C)C` (stereo partly shown) [Compound I-4] were 21.1 nM and 2.44 nM.
Regarding `CC[C@H](C)[C@@H]([C@@H](CC(=O)N1C[C@H](O)C[C@@H]1[C@H](OC)[C@@H](C)C(=O)NCCc1ccccc1)OC)N(C)C(=O)[C@@H](NC(=O)[C@H](C(C)C)N(C)C)C(C)C` [Compound I-8, (S)-2-((S)-2-(dimethylamino)-3-methylbutaneamido)-N-((3R,4S,5S)-1-((2R,4R)-4-hydroxy-2-((1R,2R)-1-methoxy-2-methyl-3-oxo-3-(phenethylamino)propyl)pyrrolidin-1-yl)-3-methoxy-5-methyl-1-oxoheptan-4-yl)-N,3-dimethylbutanamide], the IC50 is 2.9 nM in experiment [3], 0.68 nM in experiment [2], 27 nM in experiment [4] and 1.5 nM in experiment [5].
The matching figures for `CC[C@H](C)[C@@H]([C@@H](CC(=O)N1CC(=O)C[C@@H]1[C@H](OC)[C@@H](C)C(=O)NCCc1ccccc1)OC)N(C)C(=O)[C@@H](NC(=O)[C@H](C(C)C)N(C)C)C(C)C` [Compound I-9, (S)-2-((S)-2-(dimethylamino)-3-methylbutaneamido)-N-((3R,4S,5S)-3-methoxy-1-((R)-2-((1R,2R)-1-methoxy-2-methyl-3-oxo-3-(phenethylamino)propyl)-4-oxopyrrolidin-1-yl)-5-methyl-1-oxoheptan-4-yl)-N,3-dimethylbutanamide]: 27.7 nM, 5.23 nM, 27 nM and 10.9 nM.
As to `CC[C@H](C)[C@@H]([C@@H](CC(=O)N1CSC[C@@H]1[C@H](OC)[C@@H](C)C(=O)NCCc1c(F)cccc1F)OC)N(C)C(=O)[C@@H](NC(=O)[C@@H](NC)C(C)C)C(C)C` [Compound I-32, (S)—N-((3R,4S,5S)-1-((S)-4-((1R,2R)-3-((2,6-difluorophenethyl)amino)-1-methoxy-2-methyl-3-oxopropyl)thiazolidin-3-yl)-3-methoxy-5-methyl-1-oxoheptan-4-yl)-N,3-dimethyl-2-((S)-3-methyl-2-(methylamino)butaneamido)butanamide], in experiment [2], the IC50 was determined as 0.64 nM.
`CC[C@H](C)[C@@H]([C@@H](CC(=O)N1C[C@H](OC)C[C@H]1[C@H](OC)[C@@H](C)C(=O)NCC(=O)c1ccccc1)OC)N(C)C(=O)[C@@H](NC(=O)[C@@H](NC)C(C)C)C(C)C` [Compound I-34]: the IC50 in experiment [2] turned out to be 9.71 nM; in experiment [5], 10.9 nM.
Take `CC[C@H](C)[C@@H]([C@@H](CC(=O)N1C[C@H](OC)C[C@H]1[C@H](OC)[C@@H](C)C(=O)NCCc1ccccn1)OC)N(C)C(=O)[C@@H](NC(=O)[C@@H](NC)C(C)C)C(C)C` [Compound I-38, (2S)—N-((3R,4S)-3-methoxy-1-((2S,4R)-4-methoxy-2-((1R,2R)-1-methoxy-2-methyl-3-oxo-3-((2-(pyridin-2-yl)ethyl)amino)propyl)pyrrolidin-1-yl)-5-methyl-1-oxoheptan-4-yl)-N,3-dimethyl-2-((S)-3-methyl-2-(methylamino)butaneamido)butanamide]: in experiment [2], the IC50 came out at 1.32 nM.
As for `CC[C@H](C)[C@@H]([C@@H](CC(=O)N1C[C@H](OC)C[C@H]1[C@H](OC)[C@@H](C)C(=O)NCCc1cccs1)OC)N(C)C(=O)[C@@H](NC(=O)[C@@H](NC)C(C)C)C(C)C` [Compound I-39, (2S)—N-((3R,4S)-3-methoxy-1-((2S,4R)-4-methoxy-2-((1R,2R)-1-methoxy-2-methyl-3-oxo-3-((2-(thiophen-2-yl)ethyl)amino)propyl)pyrrolidin-1-yl)-5-methyl-1-oxoheptan-4-yl)-N,3-dimethyl-2-((S)-3-methyl-2-(methylamino)butaneamido)butanamide], the IC50 in experiment [2] is 0.67 nM.
Same read-out and setting: the same measure for `CC[C@H](C)[C@@H]([C@@H](CC(=O)N1C[C@@H](O)C[C@H]1[C@H](OC)[C@@H](C)C(=O)NCCc1c(F)cccc1F)OC)N(C)C(=O)[C@@H](NC(=O)[C@H](C(C)C)N(C)C)C(C)C` [Compound I-40]: 0.23 nM.
Same read-out and setting: then `CC[C@H](C)[C@@H]([C@@H](CC(=O)N1C[C@@H](O)C[C@H]1[C@H](OC)[C@@H](C)C(=O)N[C@@H](C)C(=O)c1ccc(F)cc1)OC)N(C)C(=O)[C@@H](NC(=O)[C@H](C(C)C)N(C)C)C(C)C` [Compound I-41, (2S)-2-((S)-2-(dimethylamino)-3-methylbutaneamido)-N-((3R,4S)-1-((2S,4S)-2-((1R,2R)-3-(((S)-1-(4-fluorophenyl)-1-oxopropan-2-yl)amino)-1-methoxy-2-methyl-3-oxopropyl)-4-hydroxypyrrolidin-1-yl)-3-methoxy-5-methyl-1-oxoheptan-4-yl)-N,3-dimethylbutanamide], with 1.83 nM; and `CC[C@H](C)[C@@H]([C@@H](CC(=O)N1C[C@@H](O)C[C@H]1[C@H](OC)[C@@H](C)C(=O)NCCc1c(F)cccc1F)OC)N(C)C(=O)[C@@H](NC(=O)[C@@H](NC)C(C)C)C(C)C` [Compound I-42, (2S)—N-((3R,4S)-1-((2S,4S)-2-((1R,2R)-3-((2,6-difluorophenethyl)amino)-1-methoxy-2-methyl-3-oxopropyl)-4-hydroxypyrrolidin-1-yl)-3-methoxy-5-methyl-1-oxoheptan-4-yl)-N,3-dimethyl-2-((S)-3-methyl-2-(methylamino)butaneamido)butanamide], with 0.74 nM.
The same measure, in the same setting: the same measure for `CC[C@H](C)[C@@H]([C@@H](CC(=O)N1C[C@@H](O)C[C@H]1[C@H](OC)[C@@H](C)C(=O)N[C@@H](C)C(=O)c1ccc(F)cc1)OC)N(C)C(=O)[C@@H](NC(=O)[C@@H](NC)C(C)C)C(C)C` [Compound I-43, (2S)—N-((3R,4S)-1-((2S,4S)-2-((1R,2R)-3-(((S)-1-(4-fluorophenyl)-1-oxopropan-2-yl)amino)-1-methoxy-2-methyl-3-oxopropyl)-4-hydroxypyrrolidin-1-yl)-3-methoxy-5-methyl-1-oxoheptan-4-yl)-N,3-dimethyl-2-((S)-3-methyl-2-(methylamino)butaneamido)butanamide]: 6.43 nM; for `CC[C@H](C)[C@@H]([C@@H](CC(=O)N1C[C@@H](N)C[C@H]1[C@H](OC)[C@@H](C)C(=O)NCCc1c(F)cccc1F)OC)N(C)C(=O)[C@@H](NC(=O)[C@H](C(C)C)N(C)C)C(C)C` [Compound I-44, (2S)—N-((3R,4S)-1-((2S,4S)-4-amino-2-((1R,2R)-3-((2,6-difluorophenethyl)amino)-1-methoxy-2-methyl-3-oxopropyl)pyrrolidin-1-yl)-3-methoxy-5-methyl-1-oxoheptan-4-yl)-2-((S)-2-(dimethylamino)-3-methylbutaneamido)-N,3-dimethylbutanamide]: 0.17 nM; for `CC[C@H](C)[C@@H]([C@@H](CC(=O)N1C[C@@H](NC)C[C@H]1[C@H](OC)[C@@H](C)C(=O)NCCc1c(F)cccc1F)OC)N(C)C(=O)[C@@H](NC(=O)[C@H](C(C)C)N(C)C)C(C)C` [Compound I-45, (2S)—N-((3R,4S)-1-((2S,4S)-2-((1R,2R)-3-((2,6-difluorophenethyl)amino)-1-methoxy-2-methyl-3-oxopropyl)-4-(methylamino)pyrrolidin-1-yl)-3-methoxy-5-methyl-1-oxoheptan-4-yl)-2-((S)-2-(dimethylamino)-3-methylbutaneamido)-N,3-dimethylbutanamide]: 0.34 nM.

By IC50 is commonly meant the concentration that inhibits the measured activity by half.
